Measured values from the CheMixHub viscosity set.

Assay: xn = mol fraction of the nth substance listed

O=C1CCCC1 + CCCO
303.15 K, 101 kPa
Details | viscosity [mPa·s]
x1 = 0.1001 | 1.333
x1 = 0.2566 | 1.091
x1 = 0.4203 | 0.974
x1 = 0.5821 | 0.922
x1 = 0.7382 | 0.915
x1 = 0.8967 | 0.935

ClC=C(Cl)Cl + CC(C)CCO
303.15 K, 101.3 kPa
Details | viscosity [mPa·s]
x1 = 0.0921 | 2.553
x1 = 0.2031 | 2.01
x1 = 0.2728 | 1.705
x1 = 0.4124 | 1.237
x1 = 0.5054 | 1.027
x1 = 0.6208 | 0.85
x1 = 0.7016 | 0.758
x1 = 0.814 | 0.666
x1 = 0.9047 | 0.597

O=S(=O)([O-])NC1CCCCC1.[Na+] + O
viscosity [mPa·s], 101 kPa
Details | x1 = 0.0007834 | x1 = 0.001319 | x1 = 0.001692 | x1 = 0.002246 | x1 = 0.002766 | x1 = 0.003045 | x1 = 0.00349 | x1 = 0.004121 | x1 = 0.00513 | x1 = 0.005949
293.15 K | 1.028 | 1.045 | 1.058 | 1.078 | 1.096 | 1.107 | 1.124 | 1.147 | 1.184 | 1.217
298.15 K | 0.9131 | 0.9289 | 0.9398 | 0.9564 | 0.973 | 0.9813 | 0.9953 | 1.015 | 1.047 | 1.075
303.15 K | 0.8176 | 0.8313 | 0.8413 | 0.8553 | 0.8697 | 0.8768 | 0.889 | 0.9061 | 0.9337 | 0.9581
313.15 K | 0.6686 | 0.6797 | 0.6875 | 0.6983 | 0.7094 | 0.7149 | 0.7243 | 0.7375 | 0.7588 | 0.7774
323.15 K | 0.5593 | 0.568 | 0.5741 | 0.5829 | 0.5918 | 0.5961 | 0.6036 | 0.6142 | 0.6312 | 0.6458

NC1CCCCC1 + CC(C)CO
Details | viscosity [mPa·s]
293.15 K, 100 kPa, x2 = 0.1205 | 2.575
298.15 K, 101 kPa, x1 = 0.0767 | 3.274
298.15 K, 101 kPa, x1 = 0.1574 | 3.183
298.15 K, 101 kPa, x1 = 0.3325 | 3.067
298.15 K, 101 kPa, x1 = 0.4277 | 2.976
298.15 K, 101 kPa, x1 = 0.5285 | 2.859
298.15 K, 101 kPa, x1 = 0.6355 | 2.681
298.15 K, 101 kPa, x1 = 0.7493 | 2.447
298.15 K, 101 kPa, x1 = 0.8706 | 2.165
308.15 K, 100 kPa, x2 = 0.6492 | 2.275

O=[N+]([O-])[O-].O=[N+]([O-])[O-].O=[N+]([O-])[O-].[Nd+3] + O
viscosity [mPa·s], 101.3 kPa
Details | x1 = 0.009316 | x1 = 0.01807 | x1 = 0.02726 | x1 = 0.03634 | x1 = 0.05266 | x1 = 0.06916 | x1 = 0.07185
293.15 K | 1.299 | 1.721 | 2.369 | 3.383 | 6.774 | 14.9 | 17.16
298.15 K | 1.159 | 1.53 | 2.106 | 2.967 | 5.8 | 12.34 | 14.09
308.15 K | 0.9433 | 1.242 | 1.696 | 2.353 | 4.38 | 8.715 | 9.848

NC1CCCCC1 + CC(C)(C)O
298.15 K, 101 kPa
Details | viscosity [mPa·s]
x1 = 0.0767 | 4.039
x1 = 0.1574 | 3.722
x1 = 0.2426 | 3.444
x1 = 0.3325 | 3.203
x1 = 0.4277 | 2.974
x1 = 0.5285 | 2.749
x1 = 0.6355 | 2.519
x1 = 0.7493 | 2.309
x1 = 0.8706 | 2.106

O=C1CCCC1 + CCCCCO
303.15 K, 101 kPa
Details | viscosity [mPa·s]
x1 = 0.0989 | 2.258
x1 = 0.2598 | 1.682
x1 = 0.4202 | 1.353
x1 = 0.5803 | 1.179
x1 = 0.7374 | 1.057
x1 = 0.9009 | 0.98

ClC=C(Cl)Cl + CCOCCO
viscosity [mPa·s], 101.33 kPa
Details | x1 = 0.1191 | x1 = 0.2226 | x1 = 0.3214 | x1 = 0.4322 | x1 = 0.5234 | x1 = 0.6128 | x1 = 0.7066 | x1 = 0.8105 | x1 = 0.9057
303.15 K | 1.453 | 1.286 | 1.134 | 0.976 | 0.865 | 0.769 | 0.687 | 0.614 | 0.557
313.15 K | 1.166 | 1.052 | 0.946 | 0.829 | 0.747 | 0.676 | 0.612 | 0.555 | 0.511

ClC=C(Cl)Cl + O=C1CCCCC1
viscosity [mPa·s], 101.33 kPa
Details | x1 = 0.1122 | x1 = 0.2059 | x1 = 0.3057 | x1 = 0.4263 | x1 = 0.4957 | x1 = 0.4987 | x1 = 0.6177 | x1 = 0.7064 | x1 = 0.7889 | x1 = 0.9152
298.15 K | 1.589 | 1.365 | 1.215 | 1.069 | – | 0.988 | 0.883 | 0.803 | 0.739 | 0.666
308.15 K | 1.339 | 1.174 | 1.062 | 0.944 | 0.878 | – | 0.789 | 0.723 | 0.68 | 0.618
318.15 K | 1.158 | 1.034 | 0.933 | 0.835 | 0.791 | – | 0.719 | 0.672 | 0.633 | 0.582

O=C1CCCC1 + CCCCCCO
303.15 K, 101 kPa
Details | viscosity [mPa·s]
x1 = 0.0985 | 2.896
x1 = 0.2605 | 2.093
x1 = 0.4224 | 1.641
x1 = 0.5807 | 1.333
x1 = 0.7406 | 1.132
x1 = 0.9025 | 1.016
